Holding throughout (experiment): acid ninhydrin cysteine assay, A560
Experiment [1] deals with T1, SaCysK (Staphylococcus aureus, UniProt P63871).
T1 sequence (P63871 1-310): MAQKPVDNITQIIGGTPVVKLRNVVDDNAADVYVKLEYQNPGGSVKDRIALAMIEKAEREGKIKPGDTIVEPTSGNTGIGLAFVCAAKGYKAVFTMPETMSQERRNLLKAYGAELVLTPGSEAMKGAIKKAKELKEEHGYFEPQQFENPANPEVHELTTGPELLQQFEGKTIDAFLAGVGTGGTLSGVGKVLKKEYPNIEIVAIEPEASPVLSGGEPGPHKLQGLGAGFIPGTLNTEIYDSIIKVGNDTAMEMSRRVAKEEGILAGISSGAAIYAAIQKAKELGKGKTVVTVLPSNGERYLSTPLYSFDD
Type of experiment: biochemical. The note with it: substrate inhibition constant, MOPS, 37 °C, no glycerol.

The target in the next experiment is NgCysK (Neisseria gonorrhoeae, UniProt Q5F9Q2). The note with it: read-out: Khalf; 10 mM OAS; MOPS; 37 °C; no glycerol; cooperative.
Sequence of NgCysK (Q5F9Q2 1-310): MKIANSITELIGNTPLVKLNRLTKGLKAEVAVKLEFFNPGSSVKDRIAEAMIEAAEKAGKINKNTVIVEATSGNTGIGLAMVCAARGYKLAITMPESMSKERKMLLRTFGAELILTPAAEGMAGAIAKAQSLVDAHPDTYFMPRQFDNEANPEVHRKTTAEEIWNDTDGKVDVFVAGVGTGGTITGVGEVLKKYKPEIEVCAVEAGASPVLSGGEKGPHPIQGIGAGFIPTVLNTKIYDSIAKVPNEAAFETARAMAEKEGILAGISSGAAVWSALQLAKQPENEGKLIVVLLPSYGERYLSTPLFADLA
For experiment [2], the target named is T1, SaCysK. The note with it: 10 mM OAS; MOPS; 37 °C; no glycerol.

In turn, `CC(=O)OC[C@H](N)C(=O)O` [O-acetylserine] returned a Ki on SaCysK [1] (15 mM Na2S) of 6.265 ± 2.489 mM.
For `S` [sodium sulfide], the Km worked out at 23.6 ± 10.8 mM on NgCysK and 2.31 ± 3.57 mM at SaCysK [2]. Besides, on SaCysK [1] (10 mM OAS), the Ki came out at 15.970 ± 12.793 mM.

The record behind these values is article doi:10.1101/2025.03.26.645513v1 (biorxiv, 2025).
